According to US10369167B2, “Continuously expressed therapeutic RNAs for targeted protein binding and methods for their use” (priority 2016, dated 2019):
Where “and” joins values, the source holds several entries; their conditions need not be identical. Equal entries are not always repeated.

Legend:
HIV-1 Ba-L strain = test: HIV challenge of stable Ghost3 (Ghost3+CXCR4+CCR5) cells, P24 assay; format: cell-based
Method: Ghost 3+CXCR4+CCR5 cells, HIV NL4-3 and Ba-L strains were obtained from the NIH AIDS Reagent Program. Ghost cells and HEK293 cells (ATCC CRL-1573) were grown on DMEM supplemented with 10% FBS and 1 mM Glutamine. CCRF-CEM (ATCC CRM-CCL-119) cells were grown in RPMI supplemented with 10% FBS and 1 mM Glutamine. HEK293 and Ghost cells were transfected with Lipofectamine 2000 according to the manufacturer's protocol (ThermoFisher, Waltham, Mass., USA). To generate stable HEK293 cell lines, 2 million cells were transfected with pJR255-based plasmids that express aptamers alone, shLuc, or shLuc-aptamer fusions. Transfected cells were selected with G418 (Gold Biotechnology, St. Louis, Mo., USA) for 10 to 14 days, followed by Fluorescent Activated Cell Sorting (FACS) to isolated mCherry positive cells. Typically, the brightest 10 to 30% of cells were collected. Second FACS was performed 7 to 10 days after the first sort to isolate stable cell populations. […] Ghost cells were already G418 resistant, therefore, no selection step was performed. 0.5M cells were transfected with pJR255 based plasmids that express shLuc, aptamer alone or shLuc-aptamer fusions. Transfected cells were sorted 7 days after transfection. Compared to HEK293 cells, the percentage of mCherry positive cells was much lower because no drug selection was applied. Typically, the brightest 5 to 10% of cells were collected. A second sort was performed 14 days later. If a decrease in mCherry signal was observed, a third sort was performed.
(§1) For the lentivirus challenge, 5×10^4 HEK293 cells stably expressing the aptamer alone, the shRNA alone or the shRNA-aptamer fusions were transduced with HIV7-GFP lentivirus particles at an MOI of 0.3 in 500 μl cell culture medium. Cells were harvested 10 days post-transduction and analyzed by FACS. For an initial HIV challenge, 5×10^4 Ghost(3)X4/R5 cells stably expressing shRNA alone or shRNA-aptamer fusions were infected with HIV-1 Ba-L strain at an MOI of 0.02 in 500 μl medium. The HIV concentration of cells in culture was determined using a P24 assay with an Alliance HIV-1 P24 ELISA kit. (PerkinElmer, Waltham, Mass., USA). For a long term HIV challenge, 1×10^5 CCRF-CEM cells stably expressing shRNA or shRNA-aptamer fusions were infected with HIV-1 NL4-3 viruses at MOI of 0.02 in 500 μl medium. […]
To test if the shRNA-fusions can exert inhibition during subsequent infection cycles using replication competent HIV, stable Ghost3+CXCR4+CCR5 cell lines expressing the shLuc alone and the shLuc-S1R1, shLuc-S3R1 and shLuc-53R3 fusions were generated (abbreviated as Ghost3 cells in following text) (Morner, et al., 1999). […] The HIV concentration in cultures was monitored by P24 assay for 9 days.

HIV = details: 10% FBS cell culture; cited from earlier work
HIV7-GFP lentivirus = test: Single cycle lentivirus HIV7-GFP challenge of stable HEK293 cells, FACS; format: cell-based, HIV; details: aptamer alone expressed directly from U6 promoter, HEK293, MOI 0.3, FACS 10 days after transduction
From the text: A direct functional assay was used to test the inhibitory effect of the aptamer candidates for combinational gene therapy in T cells or hematopoietic stem cells (HSC). To this end, plasmids (pJR255) consisting of: 1) a U6 promoter for inducing the expression of the aptamers, 2) a G418 resistant cassette for selection, and 3) an mCherry marker for cell purification and functional analysis were generated. (FIG. 11). RNAs expressed from U6 (pol III) promoter lack nucleus export signals and stay in the nucleus (18,19,20,21). Integrase functions primarily in the nucleus. […] Each population of cells was transduced with lentiHIV particles at an MOI of 0.3. The transduced cells were analyzed by FACS 10 days after transduction to minimize the effects of GFP from nonintegrated viral DNA. If an aptamer exerts any inhibition of HIV integrase, the percentage of GFP and mCherry double-positive cells should be reduced compared to the control.
For the lentivirus challenge, 5×10^4 HEK293 cells stably expressing the aptamer alone, the shRNA alone or the shRNA-aptamer fusions were transduced with HIV7-GFP lentivirus particles at an MOI of 0.3 in 500 μl cell culture medium. Cells were harvested 10 days post-transduction and analyzed by FACS. […] The HIV concentration of cells in culture was determined using a P24 assay with an Alliance HIV-1 P24 ELISA kit. […]

[1] = target: T1, HIS tagged HIV-1 Integrase (HIS-IN) (Human immunodeficiency virus type 1 group M subtype B, UniProt P12497, C1427S/F1332K); format: binding
T1 construct: HIS tagged HIV-1 Integrase (HIS-IN) expression vector; made in house; host or cells: E. coli strain C3016
Method: The gel mobility shift assay was carried out as described (Zhou, et al, 2009). RNA aptamers were transcribed from annealed oligonucleotide pairs (Table 1) containing T7 promoter sequences using Megashortscript T7 transcription kit (Thermofisher Scientific, Waltham, Mass., USA). Percentage binding was determined by Image J (http://imagej.nih.gov/ij/index.html). ^32P labeled and folded aptamers (final concentration of 2 nM) were incubated with HIS-IN protein (final concentration of 0, 20, 40, 80, 160 and 320 nM) at 37° C. for 30 min. The complexes were then separated by 5% native polyacrylamide gel. Autoradiographs were acquired via Typhoon phosphorimaging system (GE Healtcare Life Science, Pittsburgh Pa. 15264, USA). Digital images were imported and analyzed by ImageJ software (http://imagej.nih.gov/ij/index.html). 50 percent binding values were determined by the Prism 6 software (GraphPad Software Inc) using non-linear curve regression. Northern analysis of total or fractionated RNAs was carried out as described (Castanott, et al., 2009) using probes listed in primer list (Table 1). Quantification of relative band intensity was measured and calculated using Image J software.

firefly luciferase = test: Luciferase assay in HEK293 clone stably expressing firefly luciferase; format: cell-based; details: U6 driven shLuc or shLuc-aptamer fusion, Day 2 or Day 3 after transfection
Method: A HEK293 cell clone stably expressing firefly luciferase was transfected with the plasmids expressing the shLuc or the shLuc-aptamer fusions. Cells were harvested two or three days post-transfection and their firefly luciferase activities were determined by the Luciferase Assay System (Promega, Madison, Wis., USA).
Using a luciferase assay, export of the shRNA-aptamer fusion into the cytoplasm was tested. […] (FIG. 4B). […] Northern blot analyses on fractionated samples were performed to further assess the distribution and processing of the shLuc-aptamer fusion.

HIV-1 NL4-3 = test: Long term HIV challenge of stable CCRF-CEM cells, p24 assay; format: cell-based; details: pNL4-3 MOI 0.01, monitored six weeks
Method: To generate stable CCRF-CEM cell lines, 2 million cells were transfected with […]-based plasmids, that express shLuc, shLuc-S1R1, shLuc-S3R1 and shLuc-S3R3, by electroporation using the Nucleofactor kit according to the manufacturer's protocol (Lonza, Basel, Switzerland). G418 selection and FACS were performed similar to that of HEK293 cells.
as §1, with “USA).” for “USA). For a long term HIV challenge, 1×10^5 CCRF-CEM cells stably expressing shRNA or shRNA-aptamer fusions were infected with HIV-1 NL4-3 viruses at MOI of 0.02 in 500 μl medium.”
The long-term efficacy of shRNA-aptamer fusions in CD4 positive T cells was tested using CEM cells stably expressing shLuc, shLuc-S3R3, shS1 or shS1-S3R3. […] HIV concentrations were monitored for six weeks by p24 assay (FIG. 8). […] In summary, anti-integrase aptamer expressed as an shRNA-aptamer fusion can confer long term resistance to HIV-1 replication in T cells. […]

[2] = Human immunodeficiency virus 1, BAL, 216 h, read-out: inhibition of HIV replication

Molecule: Cc1nnc(C(=O)NC(C)(C)c2nc(C(=O)NCc3ccc(F)cc3)c(O)c(=O)n2C)o1 [Raltegravir, reference compound]
- inhibition at 0.002 µM (HIV-1 Ba-L strain; [2]): 96%
- inhibition at 0.02 µM (HIV-1 Ba-L strain; [2]): > 99%
- IC50 (HIV): 2 nM
- IC95 (HIV): 20 nM

Molecule: S3R3: anti-HIV integrase RNA aptamer; variable region CGTCGTATGCTGCGCCATGGGGTGGACTG (SEQ ID NO:5) (variable region only, further chemistry not given here)
- inhibition of HIV-7GFP integration (HIV7-GFP lentivirus): did not inhibit
- HIV inhibition, in words (HIV-1 Ba-L strain; Ba-L, Ghost3 cells, p24 monitored for 9 days): weaker than a low dose of Raltegravir
- Kd ([1]; 2 nM 32P labeled aptamer, HIS-IN 0-320 nM, 37° C. 30 min, read-out: binding affinity to HIS-IN (50 percent binding value)): 47 nM
- binding affinity to HIS-IN compared to S1R1 ([1]; gel shift): higher binding affinity

B1: S3R1: anti-HIV integrase RNA aptamer, oligos JRO502/JRO503 (SEQ ID NO: 15, 16) (nucleic acid)
DNA 1: CACCGCGGGCCCTAGACGCGCTGCCGTGGAGGAGGAGGTTGGTGGCGCGAGAGGTG
DNA 2: AAAACACCTCTCGCGCCACCAACCTCCTCCTCCACGGCAGCGCGTCTAGGGCCCGC
modifications: listed as DNA, chemistry not fully specified; the letters are possibly those of the target site
- inhibition of HIV-7GFP integration (HIV7-GFP lentivirus): did not inhibit

B2: shLuc: U6 promoter driven shRNA targeting luciferase with an artificial 10 bases loop (nucleic acid)
chain 1: CACCGCTTACGCTGAGTACTTCGAAATTGAAGCTTGTTTCGAAGTACTCAGCGTAAG
chain 2: AAAACTTACGCTGAGTACTTCGAAACAAGCTTCAATTTCGAAGTACTCAGCGTAAGC
modifications: the letters are possibly those of the target site
notes: U6 promoter driven shRNA targeting luciferase with an artificial 10 bases loop
- inhibition of luciferase activity (firefly luciferase): slightly stronger

B3: shLuc-S3R3: shLuc-aptamer fusion with integrase aptamer S3R3 (SEQ ID NO: 23, 24) (nucleic acid)
DNA 1: CACCGCTTACGCTGAGTACTTCGAAACAAGGAGGACGATGCGGGCCGTCGTATGCTGCGCCATGGGGTGGACTGGGTGGCGCGAAGTTCGAAGTACTCAGCGTAAG
DNA 2: AAAACTTACGCTGAGTACTTCGAACTTCGCGCCACCCAGTCCACCCCATGGCGCAGCATACGACGGCCCGCATCGTCCTCCTTGTTTCGAAGTACTCAGCGTAAGC
modifications: expressed or natural sequence; the letters are possibly those of the target site
- inhibition of HIV replication (relative P24 concentration compared to shLuc control) (HIV-1 Ba-L strain; Ghost3 cells expressing shRNA or shRNA-aptamer fusion, Ba-L MOI 0.02, Day 9): ~85% and 78%
- viral concentration (p24) relative to control (shLuc) (HIV-1 NL4-3): more than three orders of magnitude lower
